Measured values as given in patent US9518041B2, “(+)-5-(3,4-difluorophenyl)-5-[(3-methyl-2-oxopyridin-1(2H)-yl)methyl]imidazolidine-2,4-dione and drug containing same” (KAKEN PHARMACEUTICAL CO., LTD., priority 2013, dated 2016).

Target: T1, human MMP-17 (Homo sapiens, UniProt Q9ULZ9)
T1 sequence (Q9ULZ9 126-300 limits assumed): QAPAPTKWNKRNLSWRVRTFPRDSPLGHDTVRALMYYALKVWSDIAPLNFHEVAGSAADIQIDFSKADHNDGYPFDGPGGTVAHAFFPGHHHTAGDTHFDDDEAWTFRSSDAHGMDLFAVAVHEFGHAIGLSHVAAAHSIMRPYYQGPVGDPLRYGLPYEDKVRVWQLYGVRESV
Assay: MMP-17 inhibition test
Format: biochemical
Conditions: read-out: Inhibitory activity (IC50, nM) MMP-17
Procedure: MMP inhibition tests can be carried out, for example, using a fluorescent synthetic substrate based on the methods described in Bickett et al. (D. Mark Bickett et al., Anal. Biochem., 1993, 212, 58-64) and Nagase et al. (H. Nagase et al., J. Biol. Chem., 1994, 269, 20952-20957). The method for each MMP inhibition test is shown below.
90 μL (5.8 ng) of human MMP-17 (Calbiochem #475940) prepared with an assay buffer A was added to 90 μL of a 20 μM fluorescent substrate (MOCAc-Pro-Leu-Gly-Leu-A2pr(Dnp)-Ala-Arg-NH2, Peptide Institute Inc., #3163-v) (SEQ ID NO: 3) prepared with an assay buffer B, and reacted at room temperature for 5 hours. Enzyme activity was then determined by measuring with a fluorescence intensity meter (Labsystems, Fluoroskan Ascent) at an excitation wavelength of 320 nm and a measurement wavelength of 405 nm.
From the enzyme activity in the presence or the absence of the test substance, the inhibition rate was determined, and the 50% inhibitory concentration (IC50) of the test substance was calculated.

Cc1cccn(CC2(c3ccc(F)c(F)c3)NC(=O)NC2=O)c1=O (single isomer, unassigned; (+)) [(+)-5-(3,4-difluorophenyl)-5-[(3-methyl-2-oxopyridin-1(2H)-yl)methyl]imidazolidine-2,4-dione]
IC50: > 10000 nM
